Source: patent US20250042864A1, “SOLID STATE FORM OF TAFAMIDIS” (TEVA PHARMACEUTICALS INTERNATIONAL GMBH, priority 2021, published 2025)
≈ marks a conversion by molar mass, not a printed value.

How the values were obtained:
Format in all cases: physicochemical
[1] = particle size / morphology of crystalline forms; conditions: morphology comparison of crystalline forms
[2] = water solubility of crystalline forms of tafamidis
[3] = stability to suspension (slurry) in PEG 400 at room temperature, analysed by XRPD; conditions: slurry in PEG 400, room temperature, XRPD (FIG. 6)
Description: 50 mg of samples of Form Va and Form 4 were placed into glass vials. 1 ml of PEG 400 was added at room temperature. The slurries were each mixed using a magnetic stirrer. The resulting samples were analysed by XRPD after 2 hours and after 7 days.

| particle size [1] | water solubility [2] [µg/mL] | time for which the form is stable in PEG 400 slurry [3] | solubility [2] [µg/mL] | SMILES |
| --- | --- | --- | --- | --- |
| up to 100 μm |  |  |  | O=C(O)c1ccc2nc(-c3cc(Cl)cc(Cl)c3)oc2c1 [Form 1, 2-(3,5-dichlorophenyl)-1,3-benzoxazole-6-carboxylic acid] |
| > 100 μm |  |  |  | O=C(O)c1ccc2nc(-c3cc(Cl)cc(Cl)c3)oc2c1 [Form 6, 2-(3,5-dichlorophenyl)-1,3-benzoxazole-6-carboxylic acid] |
|  | 1.47 (≈ 4.77 µM) |  |  | O=C(O)c1ccc2nc(-c3cc(Cl)cc(Cl)c3)oc2c1 [Form V, 2-(3,5-dichlorophenyl)-1,3-benzoxazole-6-carboxylic acid] |
| 5-10 μm |  | at least 7 days | 2.21 (≈ 7.17 µM) | O=C(O)c1ccc2nc(-c3cc(Cl)cc(Cl)c3)oc2c1 [Form Va, 2-(3,5-dichlorophenyl)-1,3-benzoxazole-6-carboxylic acid] |
